According to patent US20200030214A1, “USE OF COMPATIBLE SOLUTES” (MERCK PATENT GMBH, priority 2017, published 2020):

Tests used:
Type in all cases: cell-based
HaCaT keratinocytes [1] = test: Effect of ectoin on suppression of intracellular carbonylated protein accumulation induced by oleic acid; conditions: 100 mM ectoin pre-treatment for 24 h, then 200 μM oleic acid for 48 h; FIG. 2
Experimental: The effect of ectoin on carbonylated protein accumulation is analysed. In order to induce Hsp70, HaCaT keratinocytes are cultured with 100 mM ectoin (Merck KGaA, Germany) for 24 h. Cells are cultured with oleic acid for further 48 hours, and CP levels are determined. In this examination, 200 μM oleic acid is used to evaluate the effect of ectoin on CP accumulation in the cells. HaCaT keratinocytes are cultured in DMEM containing 5% FBS and 100 mM ectoin for 24 h. Cells are further cultured with DMEM containing 200 μM oleic acid for 48 h. After fixing with cold methanol for 5 min, cells are reacted with 20 μmol/L FTSC in 0.1 mol/L MES-Na buffer (pH 5.5) at room temperature for 1 h. Fluorescence intensities derived from CPs are measured at Ex/Em 492 nm/516 nm with a fluorescence microplate reader, TECAN SPARK 10M (Mannedorf, Switzerland). Numbers of cells are determined by measuring fluorescence intensities of nuclei stained with Hoechst 33342. Intracellular CP levels are calculated as fluorescence intensity of FTSC per fluorescence intensities of nuclei.

HaCaT keratinocytes [2] = test: Protective effect against UVA induced carbonylated protein formation (SDS-PAGE, fluorescent labelling); conditions: 24 h, UVA 365 nm 33 J/cm^2, in comparison to the control, FIGS. 3 and 4
Experimental: (§1) HaCaT keratinocytes are cultured in calcium-free DMEM (Dulbecco's Modified Eagle Medium), with 10% SVF, at 37° C. and humid atmosphere, supplemented with 5% CO2 for 24 h.
(§2) After this initial time period the cell cultures are treated with the respective active compound. A non treated sample is used as reference.
(§3) The following active compounds are used in the above method: • Ectoin (Merck KGaA, Germany) 0.5% w/v dissolved in culture medium. • Ectoin (Merck KGaA, Germany) 0.3% w/v dissolved in culture medium • N-acetyl-cysteine (NAC) (Sigma-Aldrich) 2.5 mM, as internal reference
(§4) After a time period of 24 h, stress is induced in the samples by treatment with blue light irradiation (460 nm) or UVA irradiation (365 nm). In addition, samples not treated with an active compound are left non-irradiated for comparison.
UVA irradiation (365 nm): • Source: LED • Irradiance: 50 mW/cm^2 • Dose: 33 J/cm^2 (i.e. less intense than 15 minutes at noon in the middle European sunlight) • Irradiation time: 11 min […]
(§5) In situ detection of carbonylated proteins: After thawing of the samples, protein extraction from cells is performed using OxiProteomics' validated protocols. Extracted proteins are solubilized and quantified by the Bradford method (Bradford, 1976, Anal. Biochem., 72, 248) using calibrated BSA as standard. […] Quantification is obtained from each sample, both for carbonylated and total proteins.

HaCaT keratinocytes [3] = test: Protective effect against blue light induced carbonylated protein formation (SDS-PAGE, fluorescent labelling); conditions: 24 h, blue light 460 nm 35 J/cm^2, FIGS. 5 and 6
Experimental: as §1, §2, §3, §4
Blue light irradiation (460 nm): • Source: LED • Irradiance: 53 mW/cm^2 • Dose: 35 J/cm^2 (corresponding to the emission of a computer screen during 8 h/d for 3 days) • Irradiation time: 11 min […]
as §5

HaCaT keratinocytes [4] = test: Intracellular carbonylated protein (CP) levels in HaCaT keratinocytes cultured with oleic acid (FTSC fluorescence); conditions: HaCaT keratinocytes cultured in DMEM containing oleic acid at several concentrations for 48 h; FIG. 1
Experimental: Protein carbonylation is initiated by reactive aldehyde compounds which are synthesized by lipid peroxidation. Since skin pores are always immersed by sebum, oleic acid which is one of the sebum components, is used as a source of intracellular synthesis of reactive aldehyde compounds to establish cells with accumulated carbonylated proteins.
Cell culture: HaCaT keratinocytes are cultured in Dulbeco's modified Eagle's medium (DMEM) (Nissui, Tokyo, Japan) supplemented with 5% fetal bovine serum (FBS) (Thermofisher, Waltham, Calif., USA) at 37° C. in 5% CO2 and 95% air.
For this example HaCaT keratinocytes are cultured in DMEM containing oleic acid at several concentrations for 48 h. After fixing with cold methanol for 5 min, cells are reacted with 20 μmol/L FTSC (Sigma-Aldrich, St. Louis, Mo., USA in 0.1 mol/L MES-Na buffer (pH 5.5) at room temperature for 1 h. Fluorescence intensities derived from CPs are measured at Ex/Em 492 nm/516 nm with a fluorescence microplate reader, TECAN SPARK 10M (Mannedorf, Switzerland). Numbers of cells are determined by measuring fluorescence intensities of nuclei stained with Hoechst 33342 (Sigma-Aldrich (St. Louis, Mo., USA)). Intracellular CP levels are calculated as fluorescence intensity of FTSC per fluorescence intensities of nuclei.

SMILES | CP accumulation through oleic acid (HaCaT keratinocytes [1]) | protective effect against UVA induced protein carbonylation (HaCaT keratinocytes [2]; ectoin 0.3% w/v) | protective effect against UVA induced protein carbonylation (HaCaT keratinocytes [2]; ectoin 0.5% w/v) | protective effect against blue light induced protein carbonylation (HaCaT keratinocytes [3]; ectoin 0.3% w/v) | protective effect against blue light induced protein carbonylation (HaCaT keratinocytes [3]; ectoin 0.5% w/v) | level of intracellular CPs (HaCaT keratinocytes [4])
CC1=N[C@H](C(=O)O)CCN1 [ectoin, (S)-1,4,5,6-tetrahydro-2-methyl-4-pyrimidincarboxylic acid] | suppression of CP accumulation | significant protective effect | No significant comparison | significant protective effect | significant protective effect | 
CCCCCCCC/C=C\CCCCCCCC(=O)O [oleic acid] |  |  |  |  |  | higher level of intracellular CPs
